Here are results for 12 molecules from ChEMBL document CHEMBL1157764, “Conserved high activity binding peptides are involved in adhesion of two detergent-resistant membrane-associated merozoite proteins to red blood cells during invasion” (J Med Chem, 2010).

The source made the active and inactive calls. The calls are words filed in the database; no cut-off is given here. Some results are limits rather than exact numbers.

Test [1] is filed under the species Homo sapiens. Put plainly: Binding affinity to RBC membrane receptor in 1 mg/mL trypsin pretreated human RBCs relative to untreated RBCs.
For test [2], the species on record is Homo sapiens. Put plainly: Binding affinity to RBC membrane receptor in human RBCs assessed as specific binding activity measured as ratio of specifically bound peptide/added peptide by gamma counter.
The species named for test [3] is Homo sapiens. Put plainly: Binding affinity to RBC membrane receptor in 150 uU/mL neuraminidase pretreated human RBCs relative to untreated RBCs.
The subject of test [4] is Plasmodium falciparum. The test can be described thus: Antiplasmodial activity against Plasmodium falciparum FCB2 assessed as inhibition of merozoite invasion of human RBCs at 100 uM after 18 hrs using hydroethidine staining by flow cytometry. Type of test: functional. The conditions noted are these: FCB2, 18 h.
Test [5] deals with Plasmodium falciparum. The test can be described thus: Antiplasmodial activity against Plasmodium falciparum FCB2 assessed as inhibition of merozoite invasion of human RBCs at 200 uM after 18 hrs using hydroethidine staining by flow cytometry. The test is classed as functional. The note with it: FCB2, 18 h.
For test [6], the species on record is Homo sapiens. Put plainly: Binding affinity to RBC membrane receptor in 1 mg/mL chymotrypsin pretreated human RBCs relative to untreated RBCs.
Test [7] can be described thus: Binding affinity to RBC membrane receptor in human RBCs assessed as dissociation constant by gamma counter.
The species entered for test [8] is Homo sapiens. Put plainly: Binding affinity of radio labeled compound to 170 kDa RBC membrane receptor in human RBCs cross-linked with bis-(sulfosuccinimidyl)suberate by autoradiography using SDS-PAGE.
The species entered for test [9] is Homo sapiens. Put plainly: Binding affinity of radio labeled compound to 78 kDa RBC membrane receptor in human RBCs cross-linked with bis-(sulfosuccinimidyl)suberate by autoradiography using SDS-PAGE.
The species entered for test [10] is Homo sapiens. Put plainly: Binding affinity of radio labeled compound to 85 kDa RBC membrane receptor in human RBCs cross-linked with bis-(sulfosuccinimidyl)suberate by autoradiography using SDS-PAGE.
The species entered for test [11] is Homo sapiens. The test can be described thus: Binding affinity of radio labeled compound to 47 kDa RBC membrane receptor in human RBCs cross-linked with bis-(sulfosuccinimidyl)suberate by autoradiography using SDS-PAGE.
For test [12], the species on record is Homo sapiens. Put plainly: Binding affinity of radio labeled compound to 68 kDa RBC membrane receptor in human RBCs cross-linked with bis-(sulfosuccinimidyl)suberate by autoradiography using SDS-PAGE.
In test [13] the test system is Plasmodium falciparum. The test can be described thus: Antiplasmodial activity against Plasmodium falciparum FCB2 assessed as inhibition of merozoite invasion of human RBCs at 1.85 mg/mL after 18 hrs using hydroethidine staining by flow cytometry. Type of test: functional. Also on record: scale not given: the % may be the effect or the level left.
Test [14] deals with Plasmodium falciparum. Put plainly: Antiplasmodial activity against Plasmodium falciparum FCB2 assessed as inhibition of merozoite invasion of human RBCs at 1.9 mg/mL after 18 hrs using hydroethidine staining by flow cytometry. The test is classed as functional. Set-up: scale not given: the % may be the effect or the level left.

As to `CC[C@H](C)[C@H](NC(=O)[C@H](CCCCN)NC(=O)CNC(=O)CNC(=O)[C@H](Cc1ccc(O)cc1)NC(=O)[C@H](CC(=O)O)NC(=O)[C@H](CO)NC(=O)[C@H](CC(C)C)NC(=O)[C@@H](N)CCCNC(=N)N)C(=O)N[C@@H](CC(C)C)C(=O)N[C@H](C(=O)N[C@@H](CCCCN)C(=O)NCC(=O)N[C@H](C(=O)N[C@@H](CC(N)=O)C(=O)N[C@@H](C)C(=O)N[C@@H](CCC(N)=O)C(=O)N[C@@H](CC(N)=O)C(=O)N[C@H](C(=O)N[C@@H](CC(C)C)C(=O)O)[C@H](C)O)[C@@H](C)O)C(C)C`, the Activity in the test listed under Homo sapiens [1] was 11%; in the test listed under Homo sapiens [2] it was > 2%; in the test listed under Homo sapiens [3], 67%; in the test filed under Homo sapiens [6], 79%. For the same molecule, the inhibition at 100 µM in the test with Plasmodium falciparum [4] is 34%. For the same molecule, the inhibition at 200 µM with Plasmodium falciparum [5] came out at 9%. Also, in [7], the Kd was 0.9 µM.
In the case of `CC(C)C[C@H](NC(=O)[C@H](CCCCN)NC(=O)[C@H](Cc1ccc(O)cc1)NC(=O)[C@H](CC(C)C)NC(=O)CNC(=O)[C@H](CC(=O)O)NC(=O)[C@H](CO)NC(=O)[C@H](CO)NC(=O)[C@H](Cc1ccc(O)cc1)NC(=O)[C@H](CCCCN)NC(=O)[C@H](CC(C)C)NC(=O)[C@H](Cc1cnc[nH]1)NC(=O)[C@H](CO)NC(=O)[C@H](CO)NC(=O)[C@@H]1CCCN1C(=O)[C@@H](NC(=O)[C@H](CCCCN)NC(=O)[C@H](CS)NC(=O)[C@@H](NC(=O)[C@@H](N)CCCCN)[C@H](C)O)C(C)C)C(=O)O`, the Activity is 55% in the test listed under Homo sapiens [1], > 2% in the test filed under Homo sapiens [2], 23% in the test listed under Homo sapiens [3] and 37% in the test filed under Homo sapiens [6]. Also, in the test with Plasmodium falciparum [4], the inhibition at 100 µM was 45%. In the test with Plasmodium falciparum [5], the inhibition at 200 µM worked out at 13%. The Kd in test [7] is 0.25 µM.
For `CC[C@H](C)[C@H](NC(=O)[C@H](Cc1cnc[nH]1)NC(=O)[C@H](CC(N)=O)NC(=O)[C@H](CCCNC(=N)N)NC(=O)[C@@H](NC(=O)[C@@H](N)Cc1ccc(O)cc1)[C@@H](C)CC)C(=O)N[C@@H](CC(=O)O)C(=O)N[C@@H](CC(C)C)C(=O)N[C@@H](CC(=O)O)C(=O)N[C@@H](Cc1ccccc1)C(=O)N1CCC[C@H]1C(=O)N[C@@H](Cc1ccccc1)C(=O)N[C@@H](CC(=O)O)C(=O)N[C@H](C(=O)N[C@@H](CC(=O)O)C(=O)N[C@H](C(=O)N[C@H](C(=O)N[C@@H](CCCCN)C(=O)N[C@@H](CC(C)C)C(=O)N[C@@H](Cc1ccc(O)cc1)C(=O)O)C(C)C)[C@H](C)O)[C@H](C)O`, the Activity in the test listed under Homo sapiens [1] was 29%; in the test filed under Homo sapiens [2], > 2%; in the test listed under Homo sapiens [3] it was 120%; in the test filed under Homo sapiens [6], 90%. The result in the test filed under Homo sapiens [8], in the test listed under Homo sapiens [9], in the test filed under Homo sapiens [10], in the test filed under Homo sapiens [11] and in the test listed under Homo sapiens [12] was Active. In addition, the inhibition at 100 µM with Plasmodium falciparum [4] was 76%. For the same molecule, the inhibition at 200 µM in the test on Plasmodium falciparum [5] was -3%. Moreover, the dissociation constant Kd in test [7] is 0.8 µM.
Consider `CC[C@H](C)[C@H](NC(=O)[C@H](CCCNC(=N)N)NC(=O)[C@H](CCC(=O)O)NC(=O)[C@H](Cc1cnc[nH]1)NC(=O)[C@@H](NC(=O)[C@H](CC(C)C)NC(=O)[C@H](Cc1c[nH]c2ccccc12)NC(=O)[C@H](CCCCN)NC(=O)[C@H](CCCCN)NC(=O)[C@H](CCCCN)NC(=O)[C@H](CCCCN)NC(=O)[C@H](CC(N)=O)NC(=O)[C@H](C)NC(=O)[C@H](CC(=O)O)NC(=O)[C@@H](N)C(C)C)[C@@H](C)O)C(=O)N[C@@H](CC(C)C)C(=O)N[C@@H](CCCCN)C(=O)N[C@@H](CCCCN)C(=O)N[C@@H](CC(C)C)C(=O)N[C@@H](CCC(N)=O)C(=O)N[C@@H](Cc1ccc(O)cc1)C(=O)O`, for which the Activity is 50% in the test listed under Homo sapiens [1], > 2% in the test listed under Homo sapiens [2], 25% in the test listed under Homo sapiens [3] and 87% in the test filed under Homo sapiens [6]. Besides, the outcome in the test filed under Homo sapiens [9] and in the test filed under Homo sapiens [10] was Active. Further, the inhibition at 100 µM in the test on Plasmodium falciparum [4] was 37%. Besides, the inhibition at 200 µM in the test on Plasmodium falciparum [5] was 11%. The Kd in [7] was found to be 0.51 µM.
Turning to `CCN(CC)CCCC(C)Nc1ccnc2cc(Cl)ccc12` (centres undefined) [CHLOROQUINE], in the test with Plasmodium falciparum [13], the Activity stood at 68%.
For the molecule `O=C(O)CN(CCOCCOCCN(CC(=O)O)CC(=O)O)CC(=O)O` [EGTAZIC ACID], the Activity in the test on Plasmodium falciparum [14] was 81%.
On to H-ASLKETMNKIDTIEKKIEEFY-OH, for which the Activity in the test listed under Homo sapiens [1] was 87%; in the test filed under Homo sapiens [2] it was > 2%; in the test filed under Homo sapiens [3] it was 12%; in the test filed under Homo sapiens [6] it was 33%. Besides, the outcome in the test listed under Homo sapiens [9] and in the test listed under Homo sapiens [10] was Active. The inhibition at 100 µM in the test with Plasmodium falciparum [4] came out at 40%. For the same molecule, the inhibition at 200 µM in the test with Plasmodium falciparum [5] worked out at 8%. Also, the equilibrium dissociation constant (Kd) in [7] was 1.2 µM.
H-DNNKECLIDPLDVQKNLLNEY-OH: the Activity in the test filed under Homo sapiens [1] was 105%; in the test listed under Homo sapiens [2], > 2%; in the test listed under Homo sapiens [3], 13%; in the test listed under Homo sapiens [6], 59%. Further, the result in the test filed under Homo sapiens [9] and in the test filed under Homo sapiens [10] was Active. Moreover, the inhibition at 100 µM with Plasmodium falciparum [4] was determined as 36%. In the test with Plasmodium falciparum [5], the inhibition at 200 µM amounted to 4%. Besides, the Kd in [7] is 0.8 µM.
As for H-FVLAPDEMVYLFYHGNEKKN-OH, the Activity was 31% in the test listed under Homo sapiens [1], > 2% in the test filed under Homo sapiens [2], 5% in the test filed under Homo sapiens [3] and 116% in the test listed under Homo sapiens [6]. Further, the inhibition at 100 µM in the test with Plasmodium falciparum [4] turned out to be 49%. In addition, in the test with Plasmodium falciparum [5], the inhibition at 200 µM is 9%. For the same molecule, the dissociation constant (Kd) in [7] worked out at 0.85 µM.
With H-NYRRRKRITELRKILVEKLR-OH, the Activity in the test filed under Homo sapiens [1] is 43%; in the test filed under Homo sapiens [2], > 2%; in the test filed under Homo sapiens [3], 68%; in the test listed under Homo sapiens [6], 7%. Also, the result in the test listed under Homo sapiens [9] and in the test listed under Homo sapiens [10] was Active. For the same molecule, in the test on Plasmodium falciparum [4], the inhibition at 100 µM came to 47%. The inhibition at 200 µM in the test on Plasmodium falciparum [5] amounted to 15%. Further, in test [7], the Kd was determined as 1.7 µM.
Consider H-RLKENKDYDVVSSIIQHLDN-OH, for which the Activity in the test filed under Homo sapiens [1] was 18%; in the test listed under Homo sapiens [2], > 2%; in the test listed under Homo sapiens [3] it was 55%; in the test listed under Homo sapiens [6] it was 94%. For the same molecule, the outcome in the test filed under Homo sapiens [9] and in the test filed under Homo sapiens [10] was Active. Besides, the inhibition at 100 µM in the test with Plasmodium falciparum [4] was found to be 42%. For the same molecule, the inhibition at 200 µM with Plasmodium falciparum [5] came out at 7%. In addition, in [7], the equilibrium dissociation constant (Kd) was found to be 0.73 µM.
For H-YFFEYELRKKTQSFRNKNSI-OH, the Activity was 83% in the test listed under Homo sapiens [1], > 2% in the test filed under Homo sapiens [2], 17% in the test listed under Homo sapiens [3] and 31% in the test listed under Homo sapiens [6]. Besides, the result in the test filed under Homo sapiens [9] and in the test listed under Homo sapiens [10] was Active. The inhibition at 100 µM in the test with Plasmodium falciparum [4] was found to be 40%. For the same molecule, in the test on Plasmodium falciparum [5], the inhibition at 200 µM is 10%. In [7], the Kd stood at 0.9 µM.
